According to ChEMBL document CHEMBL1121545, “Synthesis of potential inhibitors of hypoxanthine-guaine phosphoribosyltransferase for testing as antiprotozoal agents. 2. 1-Substituted hypoxanthines” (1980):
Calls of active or inactive are those of the source. No cut-off for these calls is given here.

Tests used:
[1] = target: T1, Hypoxanthine-guanine phosphoribosyltransferase (Homo sapiens) (UniProt P00492); experiment: Compound was tested for the inhibition of Hypoxanthine-Guanine Phosphoribosyltransferase (from H.Ep.2 cells); no activity
T1 sequence (whole entry): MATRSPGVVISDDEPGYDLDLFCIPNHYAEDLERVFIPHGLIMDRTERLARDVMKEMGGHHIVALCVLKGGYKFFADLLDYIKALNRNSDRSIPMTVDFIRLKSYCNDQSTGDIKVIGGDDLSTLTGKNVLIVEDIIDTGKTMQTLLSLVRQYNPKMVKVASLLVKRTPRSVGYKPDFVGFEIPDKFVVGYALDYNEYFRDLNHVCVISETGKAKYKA

Mus musculus [2] = species: Mus musculus; experiment: Compound was tested for ability to extend the life span of Plasmodium berghei infected mice (Mus musculus); no activity; assay type: functional, organism-based
Mus musculus [3] = experiment: Compound was tested for the effective dose required for the inhibition of Trypanosoma rhodesiense in mice at 106 mg/kg dose in mice; (1 mice survived of 5 treated); assay type: functional
Mus musculus [4] = experiment: Compound was tested for the effective dose required for the inhibition of Trypanosoma rhodesiense in mice at 424 mg/kg dose in mice; (2 mice survived of 5 treated); assay type: functional
Mus musculus [5] = experiment: Compound was tested for the effective dose required for the inhibition of Trypanosoma rhodesiense in mice at 212 mg/kg dose in mice; (1 mice survived of 5 treated); assay type: functional

Activity [1]	Compound	Activity (Mus musculus [2])	Activity (Mus musculus [3])	Survivals (Mus musculus [4])	Survivals (Mus musculus [5])
inactive	OCCOc1[nH]cnc2ncnc1-2	inactive	–	–	–
inactive	Oc1c2ncnc-2ncn1CCCl	inactive	–	–	–
inactive	O=[N+]([O-])c1ccc(Cn2cnc3ncnc-3c2O)cc1	inactive	–	–	–
inactive	Nc1ccc(Cn2cnc3ncnc-3c2O)cc1	inactive	–	–	–
inactive	O=C(Nc1ccc(Cn2cnc3ncnc-3c2O)cc1)c1ccc(Cl)cc1	inactive	–	–	–
inactive	NCCn1cnc2ncnc-2c1O	inactive	–	–	–
–	O=C(CBr)NCCn1cnc2ncnc-2c1O	–	1	2	1
inactive	O=C(CBr)Nc1ccc(Cn2cnc3ncnc-3c2O)cc1	inactive	–	–	–

Compound	Activity [1]	Activity (Mus musculus [2])	Activity (Mus musculus [3])	Survivals (Mus musculus [4])	Survivals (Mus musculus [5])
O=C(Nc1ccc(Cn2cnc3ncnc-3c2O)cc1)c1ccc(S(=O)(=O)F)cc1	inactive	inactive	–	–	–
[N-]=[N+]=NCCn1cnc2ncnc-2c1O	inactive	inactive	–	–	–
O=C(Nc1ccc(Cn2cnc3ncnc-3c2O)cc1)c1cccc(S(=O)(=O)F)c1	inactive	inactive	–	–	–
